# From ChEMBL document CHEMBL6096706, “Discovery of WDR5-MLL1 and HDAC Dual-Target Inhibitors for the Treatment of Acute Myeloid Leukemia” (J Med Chem, 2025)
# What was measured:
# MV4-11 [1] = assay: Antiproliferative activity against human MV4-11 cells assessed as growth inhibition at 0.4 uM measured after 72 hrs by CellTiterGlo assay; type: functional; conditions: read-out: GI
# MV4-11 [2] = assay: Antiproliferative activity against human MV4-11 cells assessed as growth inhibition at 0.5 uM measured after 72 hrs by CellTiterGlo assay; type: functional; conditions: read-out: GI
# MV4-11 [3] = assay: Antiproliferative activity against human MV4-11 cells assessed as growth inhibition at 0.05 uM measured after 72 hrs in presence of 0.2 uM of vorinostat by CellTiterGlo assay; type: functional; conditions: read-out: GI
# MV4-11 [4] = assay: Antiproliferative activity against human MV4-11 cells assessed as growth inhibition at 0.05 uM measured after 72 hrs in presence of 0.5 uM of vorinostat by CellTiterGlo assay; type: functional; conditions: read-out: GI
# MV4-11 [5] = assay: Antiproliferative activity against human MV4-11 cells assessed as growth inhibition at 0.2 uM measured after 72 hrs in presence of 1 uM of vorinostat by CellTiterGlo assay; type: functional; conditions: read-out: GI
# MV4-11 [6] = assay: Antiproliferative activity against human MV4-11 cells assessed as growth inhibition at 0.4 uM measured after 72 hrs in presence of 0.2 uM of vorinostat by CellTiterGlo assay; type: functional; conditions: read-out: GI
# MV4-11 [7] = assay: Antiproliferative activity against human MV4-11 cells assessed as growth inhibition at 0.4 uM measured after 72 hrs in presence of 0.4 uM of vorinostat by CellTiterGlo assay; type: functional; conditions: read-out: GI
# MV4-11 [8] = assay: Antiproliferative activity against human MV4-11 cells assessed as growth inhibition at 0.4 uM measured after 72 hrs in presence of 0.5 uM of vorinostat by CellTiterGlo assay; type: functional; conditions: read-out: GI
# MV4-11 [9] = assay: Antiproliferative activity against human MV4-11 cells assessed as growth inhibition at 0.5 uM measured after 72 hrs in presence of 0.05 uM of vorinostat by CellTiterGlo assay; type: functional; conditions: read-out: GI
# MV4-11 [10] = assay: Antiproliferative activity against human MV4-11 cells assessed as growth inhibition at 0.5 uM measured after 72 hrs in presence of 0.2 uM of vorinostat by CellTiterGlo assay; type: functional; conditions: read-out: GI
# MV4-11 [11] = assay: Antiproliferative activity against human MV4-11 cells assessed as growth inhibition at 0.5 uM measured after 72 hrs in presence of 0.5 uM of vorinostat by CellTiterGlo assay; type: functional; conditions: read-out: GI
# MV4-11 [12] = assay: Antiproliferative activity against human MV4-11 cells assessed as growth inhibition at 1 uM measured after 72 hrs in presence of 0.2 uM of vorinostat by CellTiterGlo assay; type: functional; conditions: read-out: GI
# MV4-11 [13] = assay: Antiproliferative activity against human MV4-11 cells assessed as growth inhibition at 2 uM measured after 72 hrs in presence of 0.1 uM of vorinostat by CellTiterGlo assay; type: functional; conditions: read-out: GI
# MV4-11 [14] = assay: Antiproliferative activity against human MV4-11 cells assessed as growth inhibition at 2 uM measured after 72 hrs in presence of 0.5 uM of vorinostat by CellTiterGlo assay; type: functional; conditions: read-out: GI
# MV4-11 [15] = assay: Induction of apoptosis in human MV4-11 cells assessed as early apoptotic cells at 200 nM incubated for 72 hrs by Annexin V/PI staining based flow cytometry analysis (reference value: 0.76%); type: functional
# MV4-11 [16] = assay: Induction of apoptosis in human MV4-11 cells assessed as early apoptotic cells at 200 nM incubated for 72 hrs in presence of vorinostat by Annexin V/PI staining based flow cytometry analysis (reference value: 0.76 %); type: functional
# MV4-11 [17] = assay: Induction of apoptosis in human MV4-11 cells assessed as viable cells at 400 nM incubated for 72 hrs in presence of vorinostat by Annexin V/PI staining based flow cytometry analysis (reference value: 96.68%); type: functional; conditions: read-out: Activity
# MV4-11 [18] = assay: Induction of apoptosis in human MV4-11 cells assessed as late apoptotic cells at 400 nM incubated for 72 hrs in presence of vorinostat by Annexin V/PI staining based flow cytometry analysis (reference value: 6.42 %); type: functional
# MV4-11 [19] = assay: Induction of apoptosis in human MV4-11 cells assessed as necrotic cells at 400 nM incubated for 72 hrs in presence of vorinostat by Annexin V/PI staining based flow cytometry analysis (reference value: 2.61%); type: functional
# MV4-11 [20] = assay: Induction of apoptosis in human MV4-11 cells assessed as viable cells at 200 nmol/L incubated for 72 hrs by Annexin V/PI staining based flow cytometry analysis (reference value: 90.23%); type: functional; conditions: Homo sapiens, MV4-11, read-out: Activity
# MV4-11 [21] = assay: Induction of apoptosis in human MV4-11 cells assessed as early apoptotic cells at 200 nmol/L incubated for 72 hrs by Annexin V/PI staining based flow cytometry analysis (reference value: 4.17 %); type: functional
# MV4-11 [22] = assay: Induction of apoptosis in human MV4-11 cells assessed as late apoptotic cells at 200 nmol/L incubated for 72 hrs by Annexin V/PI staining based flow cytometry analysis (reference value: 5.14%); type: functional
# MV4-11 [23] = assay: Induction of apoptosis in human MV4-11 cells assessed as necrotic cells at 200 nmol/L incubated for 72 hrs by Annexin V/PI staining based flow cytometry analysis (reference value: 0.46%); type: functional
# Histone deacetylase 1 = Histone deacetylase 1 (Homo sapiens, UniProt Q13547); assay: Inhibition of HDAC1 (unknown origin) by fluorescence based assay
# Histone deacetylase 1, sequence (Q13547 whole entry): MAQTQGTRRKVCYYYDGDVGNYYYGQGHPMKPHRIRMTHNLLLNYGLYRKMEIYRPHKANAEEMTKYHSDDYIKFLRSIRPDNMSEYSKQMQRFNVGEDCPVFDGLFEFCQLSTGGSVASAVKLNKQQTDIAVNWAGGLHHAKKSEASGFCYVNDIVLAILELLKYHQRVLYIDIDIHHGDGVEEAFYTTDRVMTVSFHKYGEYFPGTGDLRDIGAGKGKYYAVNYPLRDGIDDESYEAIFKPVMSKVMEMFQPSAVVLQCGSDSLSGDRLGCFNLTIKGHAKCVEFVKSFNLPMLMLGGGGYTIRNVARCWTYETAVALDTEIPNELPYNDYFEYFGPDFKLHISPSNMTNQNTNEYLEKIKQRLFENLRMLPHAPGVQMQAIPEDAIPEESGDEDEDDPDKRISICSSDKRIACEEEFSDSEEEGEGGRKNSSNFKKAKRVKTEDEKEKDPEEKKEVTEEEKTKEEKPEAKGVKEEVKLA
# Histone deacetylase 2 = Histone deacetylase 2 (Homo sapiens, UniProt Q92769); assay: Inhibition of HDAC2 (unknown origin) by fluorescence based assay
# Histone deacetylase 2, sequence (Q92769 whole entry): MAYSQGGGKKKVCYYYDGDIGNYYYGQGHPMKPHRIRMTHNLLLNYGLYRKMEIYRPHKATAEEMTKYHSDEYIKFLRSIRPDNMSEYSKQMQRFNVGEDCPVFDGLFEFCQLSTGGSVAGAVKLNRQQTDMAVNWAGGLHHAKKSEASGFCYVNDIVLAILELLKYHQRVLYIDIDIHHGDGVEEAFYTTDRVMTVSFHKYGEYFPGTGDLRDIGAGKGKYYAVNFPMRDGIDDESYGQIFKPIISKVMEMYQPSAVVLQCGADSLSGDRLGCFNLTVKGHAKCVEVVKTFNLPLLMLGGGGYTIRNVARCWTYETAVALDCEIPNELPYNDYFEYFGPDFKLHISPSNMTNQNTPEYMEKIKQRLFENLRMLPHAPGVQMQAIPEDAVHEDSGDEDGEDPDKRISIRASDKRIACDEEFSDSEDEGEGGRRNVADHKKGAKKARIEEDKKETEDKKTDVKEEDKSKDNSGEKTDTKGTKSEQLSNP
# Histone deacetylase 8 = biological target: T1, Histone deacetylase 8 (Homo sapiens, UniProt Q9BY41); assay: Inhibition of HDAC8 (unknown origin) by fluorescence based assay
# T1 sequence (Q9BY41 whole entry): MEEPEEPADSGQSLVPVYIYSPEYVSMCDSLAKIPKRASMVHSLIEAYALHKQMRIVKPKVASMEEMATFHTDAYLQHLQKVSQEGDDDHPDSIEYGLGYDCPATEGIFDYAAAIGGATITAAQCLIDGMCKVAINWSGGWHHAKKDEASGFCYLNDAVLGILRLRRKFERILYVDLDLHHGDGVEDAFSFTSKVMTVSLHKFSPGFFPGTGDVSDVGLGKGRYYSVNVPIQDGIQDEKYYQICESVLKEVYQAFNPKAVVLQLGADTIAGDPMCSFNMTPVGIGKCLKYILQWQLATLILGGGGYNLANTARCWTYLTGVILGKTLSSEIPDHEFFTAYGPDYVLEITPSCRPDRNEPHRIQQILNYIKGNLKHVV
# Histone deacetylase 4 = Histone deacetylase 4 (Homo sapiens, UniProt P56524); assay: Inhibition of HDAC4 (unknown origin) by fluorescence based assay
# Histone deacetylase 4, sequence (P56524 whole entry): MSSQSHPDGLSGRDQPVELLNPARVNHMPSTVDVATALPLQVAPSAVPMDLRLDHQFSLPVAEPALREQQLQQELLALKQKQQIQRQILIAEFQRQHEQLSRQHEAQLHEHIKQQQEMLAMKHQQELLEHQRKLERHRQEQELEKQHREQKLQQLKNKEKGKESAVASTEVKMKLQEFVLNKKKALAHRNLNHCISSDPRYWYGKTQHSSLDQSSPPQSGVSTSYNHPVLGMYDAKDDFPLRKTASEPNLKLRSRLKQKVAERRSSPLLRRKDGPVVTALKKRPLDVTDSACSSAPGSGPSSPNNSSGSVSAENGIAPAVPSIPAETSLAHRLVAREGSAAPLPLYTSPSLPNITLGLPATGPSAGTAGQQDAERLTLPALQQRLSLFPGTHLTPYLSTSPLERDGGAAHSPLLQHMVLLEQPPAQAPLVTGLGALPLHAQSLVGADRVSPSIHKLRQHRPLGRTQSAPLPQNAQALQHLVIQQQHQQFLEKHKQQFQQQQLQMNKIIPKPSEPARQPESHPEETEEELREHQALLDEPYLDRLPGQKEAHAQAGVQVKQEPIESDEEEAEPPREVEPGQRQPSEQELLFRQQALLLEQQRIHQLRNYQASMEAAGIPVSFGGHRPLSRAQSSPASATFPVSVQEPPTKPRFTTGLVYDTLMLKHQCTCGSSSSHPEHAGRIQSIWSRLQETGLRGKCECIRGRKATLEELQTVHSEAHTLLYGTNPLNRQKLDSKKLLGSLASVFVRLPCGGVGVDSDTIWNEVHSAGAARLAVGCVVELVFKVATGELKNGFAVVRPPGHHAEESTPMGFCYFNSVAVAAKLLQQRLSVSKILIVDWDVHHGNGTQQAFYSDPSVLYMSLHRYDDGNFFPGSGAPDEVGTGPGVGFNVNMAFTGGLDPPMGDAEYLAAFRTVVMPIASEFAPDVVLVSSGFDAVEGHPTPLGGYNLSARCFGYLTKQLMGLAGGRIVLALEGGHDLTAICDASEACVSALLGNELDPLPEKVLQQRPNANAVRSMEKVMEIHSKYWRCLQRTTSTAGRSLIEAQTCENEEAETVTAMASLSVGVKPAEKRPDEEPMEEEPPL
# MV4-11 [24] = assay: Induction of apoptosis in human MV4-11 cells assessed as viable cells at 100 nmol/L incubated for 72 hrs by Annexin V/PI staining based flow cytometry analysis (reference value: 90.23%); type: functional; conditions: read-out: Activity
# MV4-11 [25] = assay: Antitumor activity against human MV4-11 cells xenografted in mouse assessed as tumor growth inhibition at 10 mg/kg, ip administered daily for 17 days; type: functional; conditions: MV4-11, 408 h, time 17 day, read-out: TGI
# MV4-11 [26] = assay: Antitumor activity against human MV4-11 cells xenografted in mouse assessed as tumor growth inhibition at 30 mg/kg, ip administered daily for 17 days; type: functional; conditions: MV4-11, 408 h, time 17 day, read-out: TGI
# [27] = Toxicity in mouse implanted in human MV4-11 cells assessed as lung damage at 10 to 30 mg/kg, ip administered daily for 17 days by H and E staining based analysis; type: organism-based; conditions: in vivo, 408 h, dose 10-30 mg/kg, time 17 day
compound,measurement,setting,value
Cc1c(F)c(N)cc(C(=O)Nc2cc(-c3ccc(C(=O)N4CCOCC4)cc3)ccc2N2CCN(C)CC2)c1Cl,inhibition of growth at 0.4 µM,MV4-11 [1],25.5%
same,inhibition of growth at 0.5 µM,MV4-11 [2],27.5%
same,inhibition of growth at 0.05 µM,MV4-11 [3],46.6%
same,inhibition of growth at 0.05 µM,MV4-11 [4],73.2%
same,inhibition of growth at 0.2 µM,MV4-11 [5],88.2%
same,inhibition of growth at 0.4 µM,MV4-11 [6],59.3%
same,inhibition of growth at 0.4 µM,MV4-11 [7],62.6%
same,inhibition of growth at 0.4 µM,MV4-11 [8],73.3%
same,inhibition of growth at 0.5 µM,MV4-11 [9],50.1%
same,inhibition of growth at 0.5 µM,MV4-11 [10],58.9%
same,inhibition of growth at 0.5 µM,MV4-11 [11],73.2%
same,inhibition of growth at 1 µM,MV4-11 [12],61.6%
same,inhibition of growth at 2 µM,MV4-11 [13],68.6%
same,inhibition of growth at 2 µM,MV4-11 [14],95.2%
same,Activity,MV4-11 [15],7.03%
same,Activity,MV4-11 [16],33.87%
same,viability at 0.4 µM,MV4-11 [17],26.1%
same,Activity,MV4-11 [18],16.81%
same,Activity,MV4-11 [19],3.05%
same,viability at 0.2 µM,MV4-11 [20],88.5%
same,Activity,MV4-11 [21],7.36%
same,Activity,MV4-11 [22],3.51%
same,Activity,MV4-11 [23],0.58%
Cc1c(F)c(N)cc(C(=O)Nc2cc(-c3ccc(C(=O)NCc4ccc(/C=C/C(=O)NO)cc4)cc3)ccc2N2CCN(C)CC2)c1Cl,IC50,Histone deacetylase 1,0.4 µM
same,IC50,Histone deacetylase 2,0.696 µM
same,IC50,Histone deacetylase 8,5.3 µM
same,IC50,Histone deacetylase 4,4.69 µM
same,viability at 0.2 µM,MV4-11 [20],40.3%
same,Activity,MV4-11 [21],53.31%
same,Activity,MV4-11 [22],6.01%
same,Activity,MV4-11 [23],0.41%
same,viability at 0.1 µM,MV4-11 [24],71.5%
same,inhibition in vivo at 10 mg/kg,MV4-11 [25],42.3%
same,inhibition in vivo at 30 mg/kg,MV4-11 [26],87.1%
same,Activity,[27],Non-toxic
